In patent US6737383B1, “Herbicidal oxadiazolidines” (priority 1999, dated 2004):

Experiments:
smallflower flatsedge = assay: Test B flood test smallflower flatsedge; format: in vivo, Cyperus difformis
Method in brief: (§1)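 Read-out is a visual response score from 0 (no effect) to 10 (complete control), assigned by comparison with untreated controls. Treatment was applied at the 2-leaf stage, and plants stayed in the greenhouse for twelve to sixteen days before scoring.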

bedstraw = assay: Test B pre/postemergence bedstraw; format: in vivo, Galium aparine; conditions: Preemergence; for Bedstraw plant response rating: scale 0 to 10, 0 is no effect, 10 is complete control
Method in brief: (§2)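 Herbicidal effect was estimated by eye on a ten-point control scale after plants spent twelve to sixteen days in a greenhouse following soil or foliar treatment. Foliar sprays targeted plants at one to four leaves; all doses were formulated in a non-phytotoxic solvent with surfactant.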

giant foxtail = assay: Test B pre/postemergence giant foxtail; format: in vivo, Setaria faberii
Method in brief: as §2

sugar beet = assay: Test B pre/postemergence sugar beet; format: in vivo, Beta vulgaris
Method in brief: as §2

rice = assay: Test B flood test rice; format: in vivo, Oryza sativa
Method in brief: as §1

soybean = assay: Test B pre/postemergence soybean; format: in vivo, Glycine max
Method in brief: as §2

surinam grass = assay: Test B pre/postemergence surinam grass; format: in vivo, Brachiaria decumbens
Method in brief: as §2

wild oat = assay: Test B pre/postemergence wild oat; format: in vivo, Avena fatua
Method in brief: as §2

purple nutsedge = assay: Test B pre/postemergence purple nutsedge; format: in vivo, Cyperus rotundus
Method in brief: as §2

crabgrass = assay: Test B pre/postemergence crabgrass; format: in vivo, Digitaria sanguinalis
Method in brief: as §2

bamyardgrass = assay: Test B flood test barnyardgrass; format: in vivo, Echinochloa crus-galli
Method in brief: as §1

cocklebur = assay: Test B pre/postemergence cocklebur; format: in vivo, Xanthium strumarium
Method in brief: as §2

pigweed = assay: Test B pre/postemergence pigweed; format: in vivo, Amaranthus retroflexus
Method in brief: as §2

corn = assay: Test B pre/postemergence corn; format: in vivo, Zea mays
Method in brief: as §2

velvetleaf = assay: Test B pre/postemergence velvetleaf; format: in vivo, Abutilon theophrasti
Method in brief: as §2

blackgrass = assay: Test B pre/postemergence blackgrass; format: in vivo, Alopecurus myosuroides
Method in brief: as §2

[1] = Rate 62 g/ha, flood test species, Pre-emergence, visual evaluation after twelve to sixteen days
[2] = Rate 125 g/ha, under heading Pre-emergence, flood test species, visual evaluation after twelve to sixteen days
[3] = Rate 250 g/ha, Pre-emergence (flood test species), scale 0 to 10, 0 is no effect, 10 is complete control
[4] = Rate 500 g/ha, Pre-emergence section of Table B, 0 to 10 scale (0 no effect, 10 complete control)
[5] = Postemergence, Rate 62 g/ha, scale of 0 to 10, 0 is no effect, 10 is complete control
[6] = Postemergence, Rate 125 g/ha, scale 0 to 10, 0 is no effect, 10 is complete control
[7] = Postemergence, Rate 500 g/ha, scale 0 to 10, 0 is no effect, 10 is complete control
[8] = Preemergence, Rate 62 g/ha, scale of 0 to 10 where 0 is no effect and 10 is complete control
[9] = Preemergence, Rate 125 g/ha, scale 0 to 10, 0 is no effect, 10 is complete control
[10] = Preemergence, Rate 500 g/ha, scale of 0 to 10 where 0 is no effect and 10 is complete control
[11] = Rate 250 g/ha, Postemergence, scale of 0 to 10 where 0 is no effect and 10 is complete control

CC(C)N(C(=O)n1oc(=O)n(CC2CCC2)c1=O)c1ccc(F)cc1F [Compound 521]
0: Plant response rating, S. Flatsedge (0 to 10 scale, 0 is no effect, 10 is complete control) (smallflower flatsedge; [1]) | S. Flatsedge plant response rating (0 to 10 scale, 0 is no effect, 10 is complete control) (smallflower flatsedge; [2]) | S. Flatsedge plant response rating (smallflower flatsedge; [3]) | S. Flatsedge plant response rating (smallflower flatsedge; [4]) | Plant response rating, Bedstraw (bedstraw; Rate 62 g/ha, scale of 0 to 10 where 0 is no effect and 10 is complete control) | Bedstraw plant response rating (bedstraw; Rate 125 g/ha) | Bedstraw plant response rating (0 to 10 scale) (bedstraw; Rate 250 g/ha) | Bedstraw plant response rating (bedstraw; Rate 500 g/ha) | Sugarbeets plant response rating (sugar beet; [5]) | Sugarbeets plant response rating (sugar beet; [6]) | Plant response rating, Sugarbeets (sugar beet; [8]) | Sugarbeets plant response rating (sugar beet; [9]) | Plant response rating, Sugarbeets (sugar beet; [11]) | Plant response rating, Rice (0 to 10 scale, 0 is no effect, 10 is complete control) (rice; [1]) | Rice plant response rating (0 to 10 scale, 0 is no effect, 10 is complete control) (rice; [2]) | Rice plant response rating (rice; [3]) | Rice plant response rating (rice; [4]) | Plant response rating, Soybean (soybean; [8]) | Soybean plant response rating (soybean; [9]) | Soybean plant response rating (0 to 10 scale) (soybean; Preemergence, Rate 250 g/ha) | Soybean plant response rating (soybean; [10]) | B. signalgrass plant response rating (surinam grass; [5]) | B. signalgrass plant response rating (surinam grass; [6]) | Plant response rating, B. signalgrass (surinam grass; [8]) | B. signalgrass plant response rating (surinam grass; [9]) | B. signalgrass plant response rating (0 to 10 scale, 0 is no effect, 10 is complete control) (surinam grass; Preemergence, Rate 250 g/ha) | Plant response rating, B. signalgrass (surinam grass; [11]) | Wild oats plant response rating (wild oat; [5]) | Wild oats plant response rating (wild oat; [6]) | Plant response rating, Wild oats (wild oat; [8]) | Wild oats plant response rating (wild oat; [9]) | Wild oats plant response rating (0 to 10 scale) (wild oat; Preemergence, Rate 250 g/ha) | Plant response rating, Wild oats (wild oat; [11]) | Nutsedge plant response rating (purple nutsedge; [5]) | Nutsedge plant response rating (purple nutsedge; [6]) | Plant response rating, Nutsedge (purple nutsedge; [7]) | Plant response rating, Nutsedge (purple nutsedge; [8]) | Nutsedge plant response rating (purple nutsedge; [9]) | Nutsedge plant response rating (0 to 10 scale) (purple nutsedge; Preemergence, Rate 250 g/ha) | Nutsedge plant response rating (purple nutsedge; [10]) | Plant response rating, Nutsedge (purple nutsedge; [11]) | Plant response rating, Barnyardgrass (0 to 10 scale, 0 is no effect, 10 is complete control) (bamyardgrass; [1]) | Barnyardgrass plant response rating (0 to 10 scale, 0 is no effect, 10 is complete control) (bamyardgrass; [2]) | Barnyardgrass plant response rating (bamyardgrass; [3]) | Barnyardgrass plant response rating (bamyardgrass; [4]) | Cocklebur plant response rating (cocklebur; [5]) | Cocklebur plant response rating (cocklebur; [6]) | Plant response rating, Cocklebur (cocklebur; [7]) | Plant response rating, Cocklebur (cocklebur; [8]) | Cocklebur plant response rating (cocklebur; [9]) | Cocklebur plant response rating (0 to 10 scale) (cocklebur; Preemergence, Rate 250 g/ha) | Cocklebur plant response rating (cocklebur; [10]) | Plant response rating, Cocklebur (cocklebur; [11]) | Redroot pigweed plant response rating (pigweed; [5]) | Redroot pigweed plant response rating (pigweed; [6]) | Plant response rating, Redroot pigweed (pigweed; [8]) | Redroot pigweed plant response rating (pigweed; [9]) | Redroot pigweed plant response rating (0 to 10 scale) (pigweed; Preemergence, Rate 250 g/ha) | Redroot pigweed plant response rating (pigweed; [10]) | Plant response rating, Redroot pigweed (pigweed; [11]) | Corn plant response rating (corn; [5]) | Corn plant response rating (corn; [6]) | Plant response rating, Corn (corn; [7]) | Plant response rating, Corn (corn; [8]) | Corn plant response rating (corn; [9]) | Corn plant response rating (0 to 10 scale) (corn; Preemergence, Rate 250 g/ha) | Plant response rating, Corn (corn; [11]) | Velvetleaf plant response rating (velvetleaf; [5]) | Velvetleaf plant response rating (velvetleaf; [6]) | Plant response rating, Velvetleaf (velvetleaf; [8]) | Velvetleaf plant response rating (velvetleaf; [9]) | Plant response rating, Blackgrass (blackgrass; [8]) | Blackgrass plant response rating (blackgrass; [9]) | Blackgrass plant response rating (0 to 10 scale) (blackgrass; Preemergence, Rate 250 g/ha)
3: Sugarbeets plant response rating (0 to 10 scale) (sugar beet; Preemergence, Rate 250 g/ha) | Sugarbeets plant response rating (sugar beet; [10]) | Plant response rating, B. signalgrass (surinam grass; [7]) | Corn plant response rating (corn; [10]) | Plant response rating, Velvetleaf (velvetleaf; [7]) | Velvetleaf plant response rating (velvetleaf; [10]) | Blackgrass plant response rating (blackgrass; [10])
8: Giant foxtail plant response rating (giant foxtail; [6])
5: Plant response rating, Soybean (soybean; [7]) | Plant response rating, Soybean (soybean; [11])
7: Plant response rating, Blackgrass (blackgrass; [11])
10: Plant response rating, Giant foxtail (giant foxtail; [8]) | Giant foxtail plant response rating (giant foxtail; [9]) | Giant foxtail plant response rating (0 to 10 scale) (giant foxtail; Preemergence, Rate 250 g/ha) | Giant foxtail plant response rating (giant foxtail; [10]) | Plant response rating, Crabgrass (crabgrass; [7]) | Plant response rating, Crabgrass (crabgrass; [8]) | Crabgrass plant response rating (crabgrass; [9]) | Crabgrass plant response rating (0 to 10 scale) (crabgrass; Preemergence, Rate 250 g/ha) | Crabgrass plant response rating (crabgrass; [10]) | Plant response rating, Crabgrass (crabgrass; [11])
2: Plant response rating, Wild oats (wild oat; [7]) | Wild oats plant response rating (wild oat; [10]) | Crabgrass plant response rating (crabgrass; [5]) | Velvetleaf plant response rating (0 to 10 scale) (velvetleaf; Preemergence, Rate 250 g/ha) | Plant response rating, Velvetleaf (velvetleaf; [11]) | Blackgrass plant response rating (blackgrass; [5]) | Blackgrass plant response rating (blackgrass; [6])
9: Plant response rating, Giant foxtail (giant foxtail; [7]) | Plant response rating, Giant foxtail (giant foxtail; [11]) | B. signalgrass plant response rating (surinam grass; Preemergence, Rate 500 g/ha, scale 0 to 10, 0 is no effect, 10 is complete control) | Plant response rating, Blackgrass (blackgrass; [7])
4: Giant foxtail plant response rating (giant foxtail; [5]) | Plant response rating, Sugarbeets (sugar beet; [7]) | Soybean plant response rating (soybean; [5]) | Soybean plant response rating (soybean; [6]) | Crabgrass plant response rating (crabgrass; [6]) | Plant response rating, Redroot pigweed (pigweed; [7])
